This passage reports residual kinase activity results from PMC11167047 (Cell Death Discovery, 2024).

Common to all, as to experiment: kinome screen (33PanQinase)
What all share (type): biochemical

One assay concerns the target T1, AuroraB (Homo sapiens, UniProt Q96GD4).
T1 construct: purchased Reaction Biology Europe GmbH (formerly ProQinase)
How it is done:
(§1) The Kinome Screening was performed by Reaction Biology Europe GmbH (http://reactionbiology.com; Freiburg i. Br., Germany).

A further assay has as its target T2, CDK4/CycD1 (Homo sapiens, UniProt P11802).
T2 construct: purchased Reaction Biology Europe GmbH (formerly ProQinase)
As to the method: as §1

Another assay addresses T3, HIPK1 (Homo sapiens, UniProt Q86Z02).
T3 construct: purchased Reaction Biology Europe GmbH (formerly ProQinase)
How it is done: as §1

Another assay deals with T4, IGF1R (Homo sapiens, UniProt P08069).
T4 construct: purchased Reaction Biology Europe GmbH (formerly ProQinase)
How it is done: as §1

The target in the next assay is T5, MAP3K10 (Homo sapiens, UniProt Q02779).
T5 construct: purchased Reaction Biology Europe GmbH (formerly ProQinase)
How it is done: as §1

In the next assay the target is T6, NEK9 (Homo sapiens, UniProt Q8TD19).
T6 construct: purchased Reaction Biology Europe GmbH (formerly ProQinase)
T6 sequence (Q8TD19 1-979): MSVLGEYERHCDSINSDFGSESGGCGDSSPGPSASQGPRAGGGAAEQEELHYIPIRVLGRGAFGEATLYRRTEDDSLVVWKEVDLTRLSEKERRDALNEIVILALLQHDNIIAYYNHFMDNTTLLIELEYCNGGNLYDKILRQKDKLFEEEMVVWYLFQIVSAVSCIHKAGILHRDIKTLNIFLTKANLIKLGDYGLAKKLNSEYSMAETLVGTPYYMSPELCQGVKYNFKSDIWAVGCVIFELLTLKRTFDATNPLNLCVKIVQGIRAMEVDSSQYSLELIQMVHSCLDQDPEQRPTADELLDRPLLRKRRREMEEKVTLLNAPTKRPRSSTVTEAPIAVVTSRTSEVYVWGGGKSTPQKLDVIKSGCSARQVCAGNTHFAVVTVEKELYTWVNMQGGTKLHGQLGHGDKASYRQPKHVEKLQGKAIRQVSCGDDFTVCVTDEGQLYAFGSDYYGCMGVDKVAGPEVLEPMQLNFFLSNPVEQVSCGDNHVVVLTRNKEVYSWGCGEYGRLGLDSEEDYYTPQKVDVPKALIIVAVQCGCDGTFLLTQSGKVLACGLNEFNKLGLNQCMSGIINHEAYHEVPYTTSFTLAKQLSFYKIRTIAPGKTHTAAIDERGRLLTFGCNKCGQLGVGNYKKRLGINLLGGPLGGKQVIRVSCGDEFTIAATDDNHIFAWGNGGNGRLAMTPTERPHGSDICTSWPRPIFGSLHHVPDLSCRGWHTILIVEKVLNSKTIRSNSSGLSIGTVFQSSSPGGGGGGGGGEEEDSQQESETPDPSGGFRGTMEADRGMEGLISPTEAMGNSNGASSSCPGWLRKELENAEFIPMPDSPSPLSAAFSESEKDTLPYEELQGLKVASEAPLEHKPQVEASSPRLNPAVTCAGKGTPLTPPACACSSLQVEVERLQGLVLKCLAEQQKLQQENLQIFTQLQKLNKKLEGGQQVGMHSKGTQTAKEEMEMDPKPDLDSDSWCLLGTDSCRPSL
How it is done:
as §1

A further assay concerns the target T7, SNARK (Homo sapiens, UniProt Q9H093).
T7 construct: purchased Reaction Biology Europe GmbH (formerly ProQinase)
T7 sequence (Q9H093 1-628): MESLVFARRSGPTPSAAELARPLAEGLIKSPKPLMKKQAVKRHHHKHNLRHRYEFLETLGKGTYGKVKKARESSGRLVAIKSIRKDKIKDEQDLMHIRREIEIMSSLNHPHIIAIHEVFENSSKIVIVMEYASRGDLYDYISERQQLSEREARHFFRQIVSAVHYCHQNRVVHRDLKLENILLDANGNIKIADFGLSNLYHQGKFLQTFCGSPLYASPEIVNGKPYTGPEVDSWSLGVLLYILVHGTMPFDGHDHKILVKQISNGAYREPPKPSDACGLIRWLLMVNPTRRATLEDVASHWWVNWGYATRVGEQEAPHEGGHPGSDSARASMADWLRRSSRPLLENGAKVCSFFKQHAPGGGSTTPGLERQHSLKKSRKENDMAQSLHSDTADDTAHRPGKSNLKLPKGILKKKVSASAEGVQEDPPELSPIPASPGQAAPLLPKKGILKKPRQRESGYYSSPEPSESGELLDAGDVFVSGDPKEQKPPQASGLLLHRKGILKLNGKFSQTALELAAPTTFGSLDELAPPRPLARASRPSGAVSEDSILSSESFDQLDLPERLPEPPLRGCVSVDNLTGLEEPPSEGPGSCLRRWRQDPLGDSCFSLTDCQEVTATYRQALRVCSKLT
As to the method:
as §1

The next assay addresses T8, TXK (Homo sapiens, UniProt P42681).
T8 construct: purchased Reaction Biology Europe GmbH (formerly ProQinase)
T8 sequence (P42681 1-527): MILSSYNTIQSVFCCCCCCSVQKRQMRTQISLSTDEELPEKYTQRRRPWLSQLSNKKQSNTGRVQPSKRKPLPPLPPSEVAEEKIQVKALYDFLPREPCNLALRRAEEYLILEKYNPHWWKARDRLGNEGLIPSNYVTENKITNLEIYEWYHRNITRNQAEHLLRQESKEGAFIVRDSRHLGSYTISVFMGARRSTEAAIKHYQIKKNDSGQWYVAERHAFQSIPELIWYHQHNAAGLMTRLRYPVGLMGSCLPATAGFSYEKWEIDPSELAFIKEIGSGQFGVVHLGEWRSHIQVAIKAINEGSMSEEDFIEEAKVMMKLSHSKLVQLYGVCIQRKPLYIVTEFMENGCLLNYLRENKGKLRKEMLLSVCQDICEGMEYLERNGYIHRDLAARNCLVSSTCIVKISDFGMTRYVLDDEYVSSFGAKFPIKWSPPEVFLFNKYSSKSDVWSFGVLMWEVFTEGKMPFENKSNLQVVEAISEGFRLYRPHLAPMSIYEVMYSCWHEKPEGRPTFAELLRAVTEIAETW
How it is done:
as §1

Molecules are shown by their SMILES.

T5 sequence (Q02779 whole entry): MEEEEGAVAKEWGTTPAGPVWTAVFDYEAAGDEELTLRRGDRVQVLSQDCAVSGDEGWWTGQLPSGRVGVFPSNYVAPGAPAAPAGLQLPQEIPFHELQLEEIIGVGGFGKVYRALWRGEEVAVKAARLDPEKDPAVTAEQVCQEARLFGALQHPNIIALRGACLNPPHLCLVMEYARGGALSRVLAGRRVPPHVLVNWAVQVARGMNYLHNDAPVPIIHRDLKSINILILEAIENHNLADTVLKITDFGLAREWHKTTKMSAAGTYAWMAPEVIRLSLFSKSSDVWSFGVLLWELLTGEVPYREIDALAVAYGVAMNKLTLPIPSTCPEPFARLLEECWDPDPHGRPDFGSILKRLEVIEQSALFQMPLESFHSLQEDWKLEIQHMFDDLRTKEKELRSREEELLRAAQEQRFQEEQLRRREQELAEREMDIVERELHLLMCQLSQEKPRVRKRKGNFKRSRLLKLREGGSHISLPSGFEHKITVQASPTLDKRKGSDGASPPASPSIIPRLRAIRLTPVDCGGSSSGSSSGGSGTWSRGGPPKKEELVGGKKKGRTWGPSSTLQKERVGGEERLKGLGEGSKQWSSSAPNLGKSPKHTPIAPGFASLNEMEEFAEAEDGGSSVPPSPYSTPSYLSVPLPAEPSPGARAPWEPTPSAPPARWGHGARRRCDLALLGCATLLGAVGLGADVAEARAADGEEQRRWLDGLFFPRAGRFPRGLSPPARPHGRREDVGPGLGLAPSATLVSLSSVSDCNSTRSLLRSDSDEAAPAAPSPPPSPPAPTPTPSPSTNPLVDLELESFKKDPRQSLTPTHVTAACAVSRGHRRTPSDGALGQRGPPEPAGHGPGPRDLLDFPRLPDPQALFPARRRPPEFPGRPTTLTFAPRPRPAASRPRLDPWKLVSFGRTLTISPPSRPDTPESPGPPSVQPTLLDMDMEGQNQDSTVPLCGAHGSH
T3 sequence (Q86Z02 whole entry): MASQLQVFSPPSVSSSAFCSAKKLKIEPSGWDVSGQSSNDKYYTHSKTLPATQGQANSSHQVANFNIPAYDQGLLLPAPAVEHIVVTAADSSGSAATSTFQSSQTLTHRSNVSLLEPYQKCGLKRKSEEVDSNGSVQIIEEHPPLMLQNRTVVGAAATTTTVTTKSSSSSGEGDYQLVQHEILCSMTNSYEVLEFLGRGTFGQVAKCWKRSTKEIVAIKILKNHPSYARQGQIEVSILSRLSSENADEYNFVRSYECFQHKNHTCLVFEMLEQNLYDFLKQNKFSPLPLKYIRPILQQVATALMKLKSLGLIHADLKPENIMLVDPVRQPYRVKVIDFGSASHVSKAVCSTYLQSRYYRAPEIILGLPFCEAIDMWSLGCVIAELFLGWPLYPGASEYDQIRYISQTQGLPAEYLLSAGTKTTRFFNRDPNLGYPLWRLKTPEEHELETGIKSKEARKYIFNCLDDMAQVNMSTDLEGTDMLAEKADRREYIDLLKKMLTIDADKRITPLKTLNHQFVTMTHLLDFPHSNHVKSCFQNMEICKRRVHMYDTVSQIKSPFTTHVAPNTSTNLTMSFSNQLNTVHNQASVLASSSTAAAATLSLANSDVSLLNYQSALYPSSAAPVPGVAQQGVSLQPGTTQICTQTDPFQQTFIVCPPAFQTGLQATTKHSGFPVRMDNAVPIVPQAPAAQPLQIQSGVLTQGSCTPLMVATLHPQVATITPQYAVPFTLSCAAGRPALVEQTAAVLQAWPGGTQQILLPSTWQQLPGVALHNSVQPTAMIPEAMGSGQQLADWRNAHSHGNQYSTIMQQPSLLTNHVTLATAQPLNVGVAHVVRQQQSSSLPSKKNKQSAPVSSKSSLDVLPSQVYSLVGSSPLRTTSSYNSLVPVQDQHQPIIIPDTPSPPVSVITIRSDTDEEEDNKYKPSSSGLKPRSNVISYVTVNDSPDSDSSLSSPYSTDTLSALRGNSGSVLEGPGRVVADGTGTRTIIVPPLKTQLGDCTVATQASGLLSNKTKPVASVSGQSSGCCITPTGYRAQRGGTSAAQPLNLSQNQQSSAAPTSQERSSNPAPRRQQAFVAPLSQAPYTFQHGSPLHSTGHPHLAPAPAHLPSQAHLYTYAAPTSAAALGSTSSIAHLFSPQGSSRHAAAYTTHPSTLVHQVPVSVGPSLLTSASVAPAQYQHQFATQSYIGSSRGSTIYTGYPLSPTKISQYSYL
T4 sequence (P08069 31-1367): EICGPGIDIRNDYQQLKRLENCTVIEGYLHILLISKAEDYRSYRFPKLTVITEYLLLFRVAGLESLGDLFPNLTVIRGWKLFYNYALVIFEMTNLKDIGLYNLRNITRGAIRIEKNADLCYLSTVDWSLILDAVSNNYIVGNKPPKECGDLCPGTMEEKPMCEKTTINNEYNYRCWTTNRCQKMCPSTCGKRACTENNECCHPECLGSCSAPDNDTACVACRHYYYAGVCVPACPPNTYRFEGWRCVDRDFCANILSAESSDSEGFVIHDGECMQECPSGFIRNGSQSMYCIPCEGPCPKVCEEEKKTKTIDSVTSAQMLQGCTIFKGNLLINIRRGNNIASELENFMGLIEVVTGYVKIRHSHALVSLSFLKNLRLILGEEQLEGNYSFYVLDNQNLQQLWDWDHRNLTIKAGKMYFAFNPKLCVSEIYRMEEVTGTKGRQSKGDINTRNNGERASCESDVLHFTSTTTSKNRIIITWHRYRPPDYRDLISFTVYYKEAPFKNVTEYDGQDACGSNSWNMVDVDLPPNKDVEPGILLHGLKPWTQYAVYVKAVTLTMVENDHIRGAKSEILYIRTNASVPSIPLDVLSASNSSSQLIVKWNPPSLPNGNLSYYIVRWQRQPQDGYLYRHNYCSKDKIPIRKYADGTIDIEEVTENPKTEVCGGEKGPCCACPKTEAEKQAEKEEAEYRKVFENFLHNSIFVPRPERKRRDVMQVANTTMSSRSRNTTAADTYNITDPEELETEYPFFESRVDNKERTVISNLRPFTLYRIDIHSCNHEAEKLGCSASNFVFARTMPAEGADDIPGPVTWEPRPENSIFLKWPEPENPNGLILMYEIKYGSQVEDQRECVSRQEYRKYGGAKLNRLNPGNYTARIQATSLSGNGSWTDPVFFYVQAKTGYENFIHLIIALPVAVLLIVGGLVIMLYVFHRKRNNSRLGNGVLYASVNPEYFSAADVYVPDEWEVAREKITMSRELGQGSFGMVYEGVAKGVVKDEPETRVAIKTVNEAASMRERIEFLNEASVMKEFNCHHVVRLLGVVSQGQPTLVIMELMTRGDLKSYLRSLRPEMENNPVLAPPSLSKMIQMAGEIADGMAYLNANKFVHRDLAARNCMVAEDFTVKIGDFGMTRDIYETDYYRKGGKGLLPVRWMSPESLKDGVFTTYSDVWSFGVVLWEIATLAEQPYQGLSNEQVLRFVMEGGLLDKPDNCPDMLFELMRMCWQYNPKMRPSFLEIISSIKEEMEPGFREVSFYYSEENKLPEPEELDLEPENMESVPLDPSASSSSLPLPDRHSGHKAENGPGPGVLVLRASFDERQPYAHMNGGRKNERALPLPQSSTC
T2 sequence (P11802 whole entry): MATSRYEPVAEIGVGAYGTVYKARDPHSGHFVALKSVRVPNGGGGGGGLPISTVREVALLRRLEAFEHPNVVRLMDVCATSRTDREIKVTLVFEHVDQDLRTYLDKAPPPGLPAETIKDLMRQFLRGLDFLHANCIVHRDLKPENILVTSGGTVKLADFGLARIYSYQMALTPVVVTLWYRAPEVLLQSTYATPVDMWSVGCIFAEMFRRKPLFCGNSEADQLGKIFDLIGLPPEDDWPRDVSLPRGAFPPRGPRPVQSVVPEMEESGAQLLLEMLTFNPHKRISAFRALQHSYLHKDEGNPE
T2 sequence (P24385 whole entry partner): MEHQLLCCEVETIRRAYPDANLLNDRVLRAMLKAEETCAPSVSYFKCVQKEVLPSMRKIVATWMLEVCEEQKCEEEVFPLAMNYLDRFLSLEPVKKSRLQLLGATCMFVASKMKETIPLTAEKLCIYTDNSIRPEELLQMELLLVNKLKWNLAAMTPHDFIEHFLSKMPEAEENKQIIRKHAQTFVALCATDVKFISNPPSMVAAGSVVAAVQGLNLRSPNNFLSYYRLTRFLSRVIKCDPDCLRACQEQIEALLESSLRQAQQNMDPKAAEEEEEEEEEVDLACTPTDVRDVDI
T1 sequence (Q96GD4 whole entry): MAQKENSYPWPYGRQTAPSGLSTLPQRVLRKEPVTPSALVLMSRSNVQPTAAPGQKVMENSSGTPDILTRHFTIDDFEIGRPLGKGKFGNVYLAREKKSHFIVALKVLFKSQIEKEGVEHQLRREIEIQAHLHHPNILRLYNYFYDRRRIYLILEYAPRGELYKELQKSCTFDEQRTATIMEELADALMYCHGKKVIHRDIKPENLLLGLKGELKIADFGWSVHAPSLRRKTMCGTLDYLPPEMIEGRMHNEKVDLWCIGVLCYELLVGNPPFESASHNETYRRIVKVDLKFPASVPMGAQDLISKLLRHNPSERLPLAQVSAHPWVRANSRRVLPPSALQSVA

For `COc1ccnc2[nH]cc(-c3cc(N)nc(N)c3)c12` [meriolin 16], the residual kinase activity on AuroraB (0.03 µM) is on record as 85 % of control; on AuroraB (0.3 µM), 61 % of control; on CDK4/CycD1 (0.03 µM) it was 86 % of control; at CDK4/CycD1 (0.3 µM), 36 % of control; at HIPK1 (0.03 µM), 49 % of control; at HIPK1 (0.3 µM) it was 10 % of control. Besides, the residual kinase activity on IGF1R (0.03 µM) is 116 % of control; at IGF1R (0.3 µM), 99 % of control; at MAP3K10 (0.03 µM), 99 % of control; at MAP3K10 (0.3 µM), 76 % of control; on NEK9 (0.03 µM), 89 % of control; on NEK9 (0.3 µM), 87 % of control. Moreover, the residual kinase activity on SNARK (0.03 µM) was 99 % of control; on SNARK (0.3 µM), 64 % of control; on TXK (0.03 µM) it was 100 % of control; on TXK (0.3 µM), 90 % of control.

On to `c1ccc(CNc2cc(-c3c[nH]c4ncccc34)ccn2)cc1` [meriolin 36], for which the residual kinase activity on AuroraB (0.3 µM) is recorded as 67 % of control; on AuroraB (3 µM), 26 % of control; on CDK4/CycD1 (0.3 µM) it was 24 % of control; on CDK4/CycD1 (3 µM), 4 % of control; on HIPK1 (0.3 µM), 47 % of control; at HIPK1 (3 µM), 10 % of control. Also, the residual kinase activity is 128 % of control on IGF1R (0.3 µM); 83 % of control at IGF1R (3 µM); 50 % of control at MAP3K10 (0.3 µM); 9 % of control on MAP3K10 (3 µM); 88 % of control at NEK9 (0.3 µM); 67 % of control on NEK9 (3 µM). The residual kinase activity at SNARK (0.3 µM) was 30 % of control; at SNARK (3 µM), 5 % of control; on TXK (0.3 µM) it was 84 % of control; on TXK (3 µM) it was 35 % of control.
